Measured values from patent US7906507B2, “Oxadiazoanthracene compounds for the treatment of diabetes” (TransTech Pharma, Inc., priority 2008, dated 2011).

Biological target: T1, cloned human GLP-1 receptor (Homo sapiens, UniProt P43220)
T1 construct: expressed in transfected cells; host or cells: CHO or HEK-293 cells
Assay: Functional cell-based assay: cAMP functional assay
Conditions: for Emax: 0.5 h, percentage relative to maximal GLP-1-induced cAMP accumulation, na = not active in the assay, read-out: % activation
Method: Following overnight incubation of cells, media was removed, and compounds (at concentrations ranging from 0.0001 to 100 μM) were added to monolayer cells in Iscove's modified dulbecco's medium (IMDM), 100 μM RO 20-1724 PDE inhibitor, 0.1% BSA, 2% DMSO in a final volume of 100 μL, and incubated for 30 min at 37° C. 95% O2, 5% CO2 in a humidified incubator. cAMP was quantitated using a homogenous time-resolved fluorescence detection system (cAMP dynamic, CIS bio International).

T1 sequence (P43220 24-463): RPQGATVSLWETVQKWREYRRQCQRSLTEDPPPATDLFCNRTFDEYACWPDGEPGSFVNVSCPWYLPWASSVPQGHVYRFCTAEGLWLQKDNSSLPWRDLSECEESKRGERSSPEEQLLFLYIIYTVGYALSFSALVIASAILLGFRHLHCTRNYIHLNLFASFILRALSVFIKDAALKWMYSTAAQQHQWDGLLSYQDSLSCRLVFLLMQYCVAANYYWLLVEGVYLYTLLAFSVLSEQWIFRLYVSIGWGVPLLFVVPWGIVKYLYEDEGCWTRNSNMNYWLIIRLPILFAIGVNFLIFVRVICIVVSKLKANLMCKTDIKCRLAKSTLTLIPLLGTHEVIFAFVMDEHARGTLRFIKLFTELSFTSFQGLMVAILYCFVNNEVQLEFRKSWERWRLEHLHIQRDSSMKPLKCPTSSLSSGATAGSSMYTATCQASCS

Row | EC50 | Emax | Compound
1 | 657 nM | 78% | N#Cc1ccc(-c2ccc(C[C@H](NC(=O)[C@@H]3Cc4cc5c(cc4CN3C(=O)C3CCCC3)OC(c3ccc(OCc4ccc(Cl)c(Cl)c4)cc3)C(=O)N5)C(=O)O)cc2)cc1 (stereo partly drawn) [Example 16, (S)-3-(4′-Cyano-biphenyl-4-yl)-2-({(S)-6-cyclopentanecarbonyl-3-[4-(3,4-dichloro-benzyloxy)-phenyl]-2-oxo-2,3,5,6,7,8-hexahydro-1H-4-oxa-1,6-diaza-anthracene-7-carbonyl}-amino)-propionic acid]
2 | 699 nM | 80% | N#Cc1ccc(-c2ccc(C[C@H](NC(=O)[C@@H]3Cc4cc5c(cc4CN3C(=O)N3CCCCC3)OC(c3ccc(OCc4ccc(Cl)c(Cl)c4)cc3)C(=O)N5)C(=O)O)cc2)cc1 (stereo partly drawn) [Example 17, (S)-3-(4′-Cyano-biphenyl-4-yl)-2-{[(S)-3-[4-(3,4-dichloro-benzyloxy)-phenyl]-2-oxo-6-(piperidine-1-carbonyl)-2,3,5,6,7,8-hexahydro-1H-4-oxa-1,6-diaza-anthracene-7-carbonyl]-amino}-propionic acid]
3 | 270 nM | 74.7% | N#Cc1ccc(-c2ccc(C[C@H](NC(=O)[C@@H]3Cc4cc5c(cc4CN3C(=O)OCC3CC3)OC(c3ccc(OCc4ccc(Cl)c(Cl)c4)cc3)C(=O)N5)C(=O)O)cc2)cc1 (stereo partly drawn) [Example 18, (S)-7-[(S)-1-Carboxy-2-(4′-cyano-biphenyl-4-yl)-ethylcarbamoyl]-3-[4-(3,4-dichloro-benzyloxy)-phenyl]-2-oxo-1,2,3,5,7,8-hexahydro-4-oxa-1,6-diaza-anthracene-6-carboxylic acid cyclopropylmethyl ester]
4 | 417 nM | 83.5% | N#Cc1ccc(-c2ccc(C[C@H](NC(=O)[C@@H]3Cc4cc5c(cc4CN3C(=O)c3ccco3)OC(c3ccc(OCc4ccc(Cl)c(Cl)c4)cc3)C(=O)N5)C(=O)O)cc2)cc1 (stereo partly drawn) [Example 20, (S)-3-(4′-Cyano-biphenyl-4-yl)-2-{[(S)-3-[4-(3,4-dichloro-benzyloxy)-phenyl]-6-(furan-2-carbonyl)-2-oxo-2,3,5,6,7,8-hexahydro-1H-4-oxa-1,6-diaza-anthracene-7-carbonyl]-amino}-propionic acid]
5 | 1280 nM | 65.5% | COc1ccc(C(=O)N2Cc3cc4c(cc3C[C@H]2C(=O)N[C@@H](Cc2ccc(-c3ccc(C#N)cc3)cc2)C(=O)O)NC(=O)C(c2ccc(OCc3ccc(Cl)c(Cl)c3)cc2)O4)cc1 (stereo partly drawn) [Example 23, (S)-3-(4′-Cyano-biphenyl-4-yl)-2-{[(S)-3-[4-(3,4-dichloro-benzyloxy)-phenyl]-6-(4-methoxy-benzoyl)-2-oxo-2,3,5,6,7,8-hexahydro-1H-4-oxa-1,6-diaza-anthracene-7-carbonyl]-amino}-propionic acid]
6 | 1100 nM | 14% | N#Cc1ccc(-c2ccc(C[C@H](NC(=O)[C@@H]3Cc4cc5c(cc4CN3C(=O)c3cccc4ccccc34)OC(c3ccc(OCc4ccc(Cl)c(Cl)c4)cc3)C(=O)N5)C(=O)O)cc2)cc1 (stereo partly drawn) [Example 26, (S)-3-(4′-Cyano-biphenyl-4-yl)-2-{[(S)-3-[4-(3,4-dichloro-benzyloxy)-phenyl]-6-(naphthalene-1-carbonyl)-2-oxo-2,3,5,6,7,8-hexahydro-1H-4-oxa-1,6-diaza-anthracene-7-carbonyl]-amino}-propionic acid]
7 | 1000 nM | 13% | Cc1cc(C(=O)N2Cc3cc4c(cc3C[C@H]2C(=O)N[C@@H](Cc2ccc(-c3ccc(C#N)cc3)cc2)C(=O)O)NC(=O)C(c2ccc(OCc3ccc(Cl)c(Cl)c3)cc2)O4)no1 (stereo partly drawn) [Example 31, (S)-3-(4′-Cyano-biphenyl-4-yl)-2-{[(S)-3-[4-(3,4-dichloro-benzyloxy)-phenyl]-6-(5-methyl-isoxazole-3-carbonyl)-2-oxo-2,3,5,6,7,8-hexahydro-1H-4-oxa-1,6-diaza-anthracene-7-carbonyl]-amino}-propionic acid]
8 | 1300 nM | 7% | CN(C)C(=O)N1Cc2cc3c(cc2C[C@H]1C(=O)N[C@@H](Cc1ccc(-c2ccc(C#N)cc2)cc1)C(=O)O)NC(=O)C(c1ccc(OCc2ccc(Cl)c(Cl)c2)cc1)O3 (stereo partly drawn) [Example 33, (S)-3-(4′-Cyano-biphenyl-4-yl)-2-({(S)-3-[4-(3,4-dichloro-benzylozy)-phenyl]-2-oxo-6-dimethylcarbamoyl-2-oxo-2,3,5,6,7,8-hexahydro-1H-4-oxa-1,6-diaza-anthracene-7-carbonyl}-amino)-propionic acid]

More lines, now with the values behind:

Row | Compound | EC50 | Emax
9 | CC(C)C(=O)N1Cc2cc3c(cc2C[C@H]1C(=O)N[C@@H](Cc1ccc(-c2ccc(C#N)cc2)cc1)C(=O)O)NC(=O)C(c1ccc(OCc2ccc(Cl)c(Cl)c2)cc1)O3 (stereo partly drawn) [Example 13, (S)-3-(4′-Cyano-biphenyl-4-yl)-2-({(S)-3-[4-(3,4-dichloro-benzyloxy)-phenyl]-6-isobutyryl-2-oxo-2,3,5,6,7,8-hexahydro-1H-4-oxa-1,6-diaza-anthracene-7-carbonyl}-amino)-propionic acid] | 1210 nM | 59%
10 | N#Cc1ccc(-c2ccc(C[C@H](NC(=O)[C@@H]3Cc4cc5c(cc4CN3S(=O)(=O)c3ccccc3)OC(c3ccc(OCc4ccc(Cl)c(Cl)c4)cc3)C(=O)N5)C(=O)O)cc2)cc1 (stereo partly drawn) [Example 14, (S)-2-({(S)-6-Benzenesulfonyl-3-[4-(3,4-dichloro-benzyloxy)-phenyl]-2-oxo-2,3,5,6,7,8-hexahydro-1H-4-oxa-1,6-diaza-anthracene-7-carbonyl}-amino)-3-(4′-cyano-biphenyl-4-yl)-propionic acid] | 450 nM | 77%
11 | N#Cc1ccc(-c2ccc(C[C@H](NC(=O)[C@@H]3Cc4cc5c(cc4CN3C(=O)O[C@@H]3CCOC3)OC(c3ccc(OCc4ccc(Cl)c(Cl)c4)cc3)C(=O)N5)C(=O)O)cc2)cc1 (stereo partly drawn) [Example 19, (S)-7-[(S)-1-Carboxy-2-(4′-cyano-biphenyl-4-yl)-ethylcarbamoyl]-3-[4-(3,4-dichloro-benzyloxy)-phenyl]-2-oxo-1,2,3,5,7,8-hexahydro-4-oxa-1,6-diaza-anthracene-6-carboxylic acid (R)-(tetrahydro-furan-3-yl) ester] | 181 nM | 69.9%
12 | Cc1cccc(C(=O)N2Cc3cc4c(cc3C[C@H]2C(=O)N[C@@H](Cc2ccc(-c3ccc(C#N)cc3)cc2)C(=O)O)NC(=O)C(c2ccc(OCc3ccc(Cl)c(Cl)c3)cc2)O4)c1 (stereo partly drawn) [Example 21, (S)-3-(4′-Cyano-biphenyl-4-yl)-2-{[(S)-3-[4-(3,4-dichloro-benzyloxy)-phenyl]-6-(3-methyl-benzoyl)-2-oxo-2,3,5,6,7,8-hexahydro-1H-4-oxa-1,6-diaza-anthracene-7-carbonyl]-amino}-propionic acid] | 399 nM | 70.3%
13 | N#Cc1ccc(-c2ccc(C[C@H](NC(=O)[C@@H]3Cc4cc5c(cc4CN3C(=O)c3ccc(F)cc3)OC(c3ccc(OCc4ccc(Cl)c(Cl)c4)cc3)C(=O)N5)C(=O)O)cc2)cc1 (stereo partly drawn) [Example 22, (S)-3-(4′-Cyano-biphenyl-4-yl)-2-{[(S)-3-[4-(3,4-dichloro-benzyloxy)-phenyl]-6-(4-fluoro-benzoyl)-2-oxo-2,3,5,6,7,8-hexahydro-1H-4-oxa-1,6-diaza-anthracene-7-carbonyl]-amino}-propionic acid] | 891 nM | 73.5%
14 | N#Cc1ccc(-c2ccc(C[C@H](NC(=O)[C@@H]3Cc4cc5c(cc4CN3C(=O)c3cccc(C(F)(F)F)c3)OC(c3ccc(OCc4ccc(Cl)c(Cl)c4)cc3)C(=O)N5)C(=O)O)cc2)cc1 (stereo partly drawn) [Example 24, (S)-3-(4′-Cyano-biphenyl-4-yl)-2-{[(S)-3-[4-(3,4-dichloro-benzyloxy)-phenyl]-2-oxo-6-(3-trifluoromethyl-benzoyl)-2,3,5,6,7,8-hexahydro-1H-4-oxa-1,6-diaza-anthracene-7-carbonyl]-amino}-propionic acid] | 1600 nM | 53%
15 | N#Cc1ccc(-c2ccc(C[C@H](NC(=O)[C@@H]3Cc4cc5c(cc4CN3C(=O)C3CCCCC3)OC(c3ccc(OCc4ccc(Cl)c(Cl)c4)cc3)C(=O)N5)C(=O)O)cc2)cc1 (stereo partly drawn) [Example 25, (S)-3-(4′-Cyano-biphenyl-4-yl)-2-({(S)-6-cyclohexanecarbonyl-3-[4-(3,4-dichloro-benzyloxy)-phenyl]-2-oxo-2,3,5,6,7,8-hexahydro-1H-4-oxa-1,6-diaza-anthracene-7-carbonyl}-amino)-propionic acid] | 594 nM | 12%
16 | N#Cc1ccc(-c2ccc(C[C@H](NC(=O)[C@@H]3Cc4cc5c(cc4CN3C(=O)c3cccs3)OC(c3ccc(OCc4ccc(Cl)c(Cl)c4)cc3)C(=O)N5)C(=O)O)cc2)cc1 (stereo partly drawn) [Example 28, (S)-3-(4′-Cyano-biphenyl-4-yl)-2-{[(S)-3-[4-(3,4-dichloro-benzyloxy)-phenyl]-2-oxo-6-(thiophene-2-carbonyl)-2,3,5,6,7,8-hexahydro-1H-4-oxa-1,6-diaza-anthracene-7-carbonyl]-amino}-propionic acid] | 398 nM | 29%
17 | CC(C)(C)OC(=O)N1Cc2cc3c(cc2C[C@H]1C(=O)N[C@@H](Cc1ccc(-c2ccc(C#N)cc2)cc1)C(=O)O)NC(=O)C(c1ccc(OCc2ccc(Cl)c(Cl)c2)cc1)O3 (stereo partly drawn) [Example 29, (S)-7-[(S)-1-Carboxy-2-(4′-cyano-biphenyl-4-yl)-ethylcarbamoyl]-3-[4-(3,4-dichloro-benzyloxy)-phenyl]-2-oxo-1,2,3,5,7,8-hexahydro-4-oxa-1,6-diaza-anthracene-6-carboxylic acid tert-butyl ester] | 290 nM | 17%
18 | N#Cc1ccc(-c2ccc(C[C@H](NC(=O)[C@@H]3Cc4cc5c(cc4CN3S(=O)(=O)c3cccs3)OC(c3ccc(OCc4ccc(Cl)c(Cl)c4)cc3)C(=O)N5)C(=O)O)cc2)cc1 (stereo partly drawn) [Example 32, (S)-3-(4′-Cyano-biphenyl-4-yl)-2-{[(S)-3-[4-(3,4-dichloro-benzyloxy)-phenyl]-2-oxo-6-(thiophene-2-sulfonyl)-2,3,5,6,7,8-hexahydro-1H-4-oxa-1,6-diaza-anthracene-7-carbonyl]-amino}-propionic acid] | 700 nM | 8.3%
